Data on one compound can be found in PMC10938783, “A novel pan-PI3K inhibitor KTC1101 synergizes with anti-PD-1 therapy by targeting tumor suppression and immune activation” (Molecular Cancer, 2024).

Molecules are shown by their SMILES.

One series concerns the target PI3Kα (PIK3CA/PIK3R1) (Homo sapiens, UniProt P42336). Kind of series: Adapta kinase assay. It counts as biochemical. The method, then: (§1) Procedures for the preparation of KTC1101 are described in supplemental data. To investigate the PI3K inhibitory efficacy of KTC1101, its impact on the kinase activity of PI3K isoforms was assessed using the Adapta kinase assay as previously reported. Initially, a dilution series of 2.5 µL KTC1101 or DMSO (control) was prepared and added to the respective wells of a 384-well plate. Subsequently, optimized 2.5 µL kinase solutions, including PIK3CA/PIK3R1, PIK3CB/PIK3R1, PIK3CG, and PIK3CD/PIK3R1, were introduced to each well. After adding the kinase solutions, 5 µL ATP and PIP2:PS lipid kinase substrate was introduced into each well and incubated for 1 h at room temperature. This step allows for the initiation and progression of the kinase reaction. Following the incubation, a detection solution (5 µL) was added to all the wells. This solution contained 30 mM EDTA to stop the kinase reaction, 6 nM Eu-labeled anti-ADP antibody, and a 3 × concentration of Alexa Fluor® 647 ADP tracer. The EDTA effectively terminates the kinase reaction, while the anti-ADP antibody and ADP tracer are crucial for the detection of ADP produced during the kinase reaction, which correlates with PI3K activity. The plate was then allowed to equilibrate for 30 min at room temperature, ensuring proper binding of the tracer and antibody to the generated ADP. Finally, the fluorescence of each well was measured using a Multi-Mode Microplate Reader (Spark, Tecan). To ascertain the selectivity of KTC1101 for PI3K isoforms and to rule out off-target effects, a kinase panel comprising 50 kinases was tested against KTC1101. This kinase profiling was conducted by Wuhan Heyan Biomedical Technology Co., Ltd.

The target of the next series is PI3Kβ (PIK3CB/PIK3R1) (Homo sapiens, UniProt P42338). Kind of series: Adapta kinase assay. The class given is biochemical. The method, then: as §1
Sequence of PI3Kβ (PIK3CB/PIK3R1) (P42338 whole entry): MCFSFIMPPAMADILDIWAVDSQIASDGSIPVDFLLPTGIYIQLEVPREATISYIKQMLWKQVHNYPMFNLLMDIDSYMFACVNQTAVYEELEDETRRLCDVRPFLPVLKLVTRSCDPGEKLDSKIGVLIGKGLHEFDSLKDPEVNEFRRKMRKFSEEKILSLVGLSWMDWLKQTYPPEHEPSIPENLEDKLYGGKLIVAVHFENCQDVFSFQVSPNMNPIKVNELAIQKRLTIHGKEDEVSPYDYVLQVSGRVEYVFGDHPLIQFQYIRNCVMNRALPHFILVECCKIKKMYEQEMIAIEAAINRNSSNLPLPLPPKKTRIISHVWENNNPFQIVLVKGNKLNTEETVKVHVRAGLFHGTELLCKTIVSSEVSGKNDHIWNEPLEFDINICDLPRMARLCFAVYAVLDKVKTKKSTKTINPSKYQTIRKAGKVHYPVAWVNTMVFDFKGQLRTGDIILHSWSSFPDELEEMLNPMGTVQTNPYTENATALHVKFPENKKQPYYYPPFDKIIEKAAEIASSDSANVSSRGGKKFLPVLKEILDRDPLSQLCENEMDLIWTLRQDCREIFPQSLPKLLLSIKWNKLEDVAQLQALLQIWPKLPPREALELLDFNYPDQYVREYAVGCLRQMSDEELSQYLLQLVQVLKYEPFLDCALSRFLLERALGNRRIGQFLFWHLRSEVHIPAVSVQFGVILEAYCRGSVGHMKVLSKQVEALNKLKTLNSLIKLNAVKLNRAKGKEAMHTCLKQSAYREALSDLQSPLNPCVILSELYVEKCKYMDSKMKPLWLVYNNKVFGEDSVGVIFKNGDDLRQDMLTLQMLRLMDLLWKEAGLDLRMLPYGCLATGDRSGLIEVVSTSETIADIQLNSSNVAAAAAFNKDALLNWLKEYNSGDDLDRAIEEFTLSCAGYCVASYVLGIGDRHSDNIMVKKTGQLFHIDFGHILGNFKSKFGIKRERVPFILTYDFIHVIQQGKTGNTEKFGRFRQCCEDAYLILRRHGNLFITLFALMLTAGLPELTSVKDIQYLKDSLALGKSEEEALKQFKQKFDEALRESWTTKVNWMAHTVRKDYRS
Sequence of PI3Kβ (PIK3CB/PIK3R1) (P27986 whole entry partner): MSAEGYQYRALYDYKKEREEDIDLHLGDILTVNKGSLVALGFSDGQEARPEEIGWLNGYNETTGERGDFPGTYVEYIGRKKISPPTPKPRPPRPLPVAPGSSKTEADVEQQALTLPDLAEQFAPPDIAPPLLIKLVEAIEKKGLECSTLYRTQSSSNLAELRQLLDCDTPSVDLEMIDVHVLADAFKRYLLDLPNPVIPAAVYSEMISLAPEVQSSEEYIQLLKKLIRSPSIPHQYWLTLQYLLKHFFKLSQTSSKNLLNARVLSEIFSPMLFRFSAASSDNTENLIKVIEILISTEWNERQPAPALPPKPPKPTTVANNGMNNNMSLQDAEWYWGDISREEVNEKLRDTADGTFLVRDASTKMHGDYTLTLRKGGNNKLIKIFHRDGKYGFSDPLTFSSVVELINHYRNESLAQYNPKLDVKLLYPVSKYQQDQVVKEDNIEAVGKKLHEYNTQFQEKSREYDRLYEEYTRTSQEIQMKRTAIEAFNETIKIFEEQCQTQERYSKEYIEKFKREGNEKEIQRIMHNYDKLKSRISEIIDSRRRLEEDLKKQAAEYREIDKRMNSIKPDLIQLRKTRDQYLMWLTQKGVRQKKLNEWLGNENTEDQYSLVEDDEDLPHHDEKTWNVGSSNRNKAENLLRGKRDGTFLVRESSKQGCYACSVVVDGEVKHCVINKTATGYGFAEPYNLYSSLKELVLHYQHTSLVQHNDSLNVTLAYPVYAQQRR
The next series concerns the target PI3Kγ (PIK3CG) (Homo sapiens, UniProt P48736). Kind of series: Adapta kinase assay. The class given is biochemical. The method, then: as §1
A further series concerns the target PI3Kδ (PIK3CD/PIK3R1) (Homo sapiens, UniProt O00329). Kind of series: Adapta kinase assay. It counts as biochemical. The method, then: as §1
Series [1] deals with immune cell populations in B16 tumors. Kind of series: Flow cytometry of tumor-infiltrating immune cells. It counts as in vivo, mouse. To be noted: intermittent dosing. The method, then: To obtain single-cell suspensions for analysis by flow cytometry, tumors were excised, minced, and dissociated in Deoxyribonuclease/collagenase/hyaluronidase buffer (0.1 mg/mL Deoxyribonuclease I, 0.2 mg/mL Collagenase IV and 0.2 mg/mL Hyaluronidase) for 60 min at 37 °C with agitation, and strained through a 70 μm strainer for downstream applications. Tissue was dissociated as described above to obtain single-cell suspensions. Cells were stained with antibodies for 30 min at 4 °C, and then fixed and intracellularly stained using Foxp3/ Transcription Factor Staining Buffer Set (eBioscience) according to the manufacturer’s instructions. Antibodies used in this study can be found in Supplementary Table 2. The stained cells were acquired on a BD C6 Flow Cytometer using BD AccuriTM C6 Software (BD Biosciences) and the data were processed using FlowJo software.

Series [2] can be described thus: Drug concentration measurement in tumors. The class given is in vivo, mouse. The following applies: B16 tumors, continuous dosing. The method, then:
To evaluate the intratumoral concentration of KTC1101, the B16 murine cancer model was established by subcutaneously implanting 2.5 × 10^5 B16 cells into the right lateral flank of C57BL/6 mice. The mouse model was utilized for experiments when tumor volumes reached approximately 100 mm^3. The B16 tumor-bearing C57BL/6 mice were divided into groups, with each group comprising three mice. They were treated with KTC1101 at doses of either 50 or 100 mg/kg (PO). The mice were sacrificed, and tumors were collected on days 1, 5, and 7 post-treatment. Approximately 50 mg of each tumor was homogenized in 1 mL of methanol, followed by centrifugation at 12,000 rpm at 4 °C for 10 min. The concentration of KTC1101 in the supernatant was quantified using LC–MS.

Sequence of PI3Kα (PIK3CA/PIK3R1) (P42336 whole entry, canonical isoform): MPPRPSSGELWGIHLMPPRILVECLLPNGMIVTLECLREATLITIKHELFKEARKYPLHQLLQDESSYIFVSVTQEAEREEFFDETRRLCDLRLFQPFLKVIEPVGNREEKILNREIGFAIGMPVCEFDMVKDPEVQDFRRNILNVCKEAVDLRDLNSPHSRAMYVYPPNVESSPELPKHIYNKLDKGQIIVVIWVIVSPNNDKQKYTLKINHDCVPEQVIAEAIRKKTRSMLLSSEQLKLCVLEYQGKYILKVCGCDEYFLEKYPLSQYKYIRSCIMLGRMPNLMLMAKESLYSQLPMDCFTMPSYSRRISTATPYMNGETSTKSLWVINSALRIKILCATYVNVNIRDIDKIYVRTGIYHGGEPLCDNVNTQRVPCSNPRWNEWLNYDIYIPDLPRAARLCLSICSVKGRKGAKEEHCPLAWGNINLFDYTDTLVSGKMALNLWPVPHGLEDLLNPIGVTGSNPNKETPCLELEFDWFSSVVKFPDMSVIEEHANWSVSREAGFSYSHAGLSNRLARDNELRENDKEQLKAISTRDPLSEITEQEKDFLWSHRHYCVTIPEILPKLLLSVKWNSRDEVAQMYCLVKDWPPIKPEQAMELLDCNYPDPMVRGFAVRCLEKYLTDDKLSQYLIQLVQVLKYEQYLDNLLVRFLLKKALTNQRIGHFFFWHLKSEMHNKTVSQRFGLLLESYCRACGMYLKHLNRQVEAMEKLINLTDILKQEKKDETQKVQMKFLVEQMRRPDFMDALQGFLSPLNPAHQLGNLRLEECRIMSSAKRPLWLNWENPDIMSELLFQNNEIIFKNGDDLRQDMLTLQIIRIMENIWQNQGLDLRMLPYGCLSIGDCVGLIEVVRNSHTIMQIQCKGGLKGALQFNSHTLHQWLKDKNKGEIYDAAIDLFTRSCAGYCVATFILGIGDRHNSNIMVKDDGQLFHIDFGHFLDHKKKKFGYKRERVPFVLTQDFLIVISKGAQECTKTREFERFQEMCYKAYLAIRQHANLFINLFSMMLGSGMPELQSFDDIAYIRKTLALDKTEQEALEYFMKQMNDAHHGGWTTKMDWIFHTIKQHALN
Sequence of PI3Kα (PIK3CA/PIK3R1) (P27986 whole entry partner, canonical isoform): as the sequence (P27986 whole entry partner) above
Sequence of PI3Kδ (PIK3CD/PIK3R1) (O00329 whole entry): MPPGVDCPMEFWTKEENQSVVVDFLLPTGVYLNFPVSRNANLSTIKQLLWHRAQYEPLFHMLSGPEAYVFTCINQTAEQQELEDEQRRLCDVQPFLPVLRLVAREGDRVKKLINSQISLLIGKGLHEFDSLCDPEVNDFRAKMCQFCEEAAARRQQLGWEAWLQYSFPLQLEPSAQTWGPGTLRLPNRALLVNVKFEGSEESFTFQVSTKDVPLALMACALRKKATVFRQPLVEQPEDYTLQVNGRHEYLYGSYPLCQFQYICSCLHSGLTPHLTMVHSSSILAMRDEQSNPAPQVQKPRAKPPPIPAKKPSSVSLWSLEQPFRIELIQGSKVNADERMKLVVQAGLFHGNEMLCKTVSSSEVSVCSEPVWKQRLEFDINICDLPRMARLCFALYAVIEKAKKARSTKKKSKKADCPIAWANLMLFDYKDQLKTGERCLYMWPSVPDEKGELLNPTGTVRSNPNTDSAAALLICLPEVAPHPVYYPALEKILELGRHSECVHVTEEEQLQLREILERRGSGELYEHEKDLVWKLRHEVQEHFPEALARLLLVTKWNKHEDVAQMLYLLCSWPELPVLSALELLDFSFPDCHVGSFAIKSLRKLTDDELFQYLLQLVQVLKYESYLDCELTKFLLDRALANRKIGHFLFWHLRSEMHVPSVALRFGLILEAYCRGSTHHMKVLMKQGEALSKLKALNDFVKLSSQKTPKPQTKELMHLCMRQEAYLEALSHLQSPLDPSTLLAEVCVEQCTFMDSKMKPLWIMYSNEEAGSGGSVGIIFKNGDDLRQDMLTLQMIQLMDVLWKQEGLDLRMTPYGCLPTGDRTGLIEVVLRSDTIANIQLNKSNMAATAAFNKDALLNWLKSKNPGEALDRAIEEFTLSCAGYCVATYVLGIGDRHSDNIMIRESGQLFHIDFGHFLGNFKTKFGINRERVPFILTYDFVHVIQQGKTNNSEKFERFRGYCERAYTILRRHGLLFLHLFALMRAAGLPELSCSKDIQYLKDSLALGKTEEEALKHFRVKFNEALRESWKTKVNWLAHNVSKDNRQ
Sequence of PI3Kδ (PIK3CD/PIK3R1) (P27986 whole entry partner): as the sequence (P27986 whole entry partner) above
Sequence of PI3Kγ (PIK3CG) (P48736 whole entry): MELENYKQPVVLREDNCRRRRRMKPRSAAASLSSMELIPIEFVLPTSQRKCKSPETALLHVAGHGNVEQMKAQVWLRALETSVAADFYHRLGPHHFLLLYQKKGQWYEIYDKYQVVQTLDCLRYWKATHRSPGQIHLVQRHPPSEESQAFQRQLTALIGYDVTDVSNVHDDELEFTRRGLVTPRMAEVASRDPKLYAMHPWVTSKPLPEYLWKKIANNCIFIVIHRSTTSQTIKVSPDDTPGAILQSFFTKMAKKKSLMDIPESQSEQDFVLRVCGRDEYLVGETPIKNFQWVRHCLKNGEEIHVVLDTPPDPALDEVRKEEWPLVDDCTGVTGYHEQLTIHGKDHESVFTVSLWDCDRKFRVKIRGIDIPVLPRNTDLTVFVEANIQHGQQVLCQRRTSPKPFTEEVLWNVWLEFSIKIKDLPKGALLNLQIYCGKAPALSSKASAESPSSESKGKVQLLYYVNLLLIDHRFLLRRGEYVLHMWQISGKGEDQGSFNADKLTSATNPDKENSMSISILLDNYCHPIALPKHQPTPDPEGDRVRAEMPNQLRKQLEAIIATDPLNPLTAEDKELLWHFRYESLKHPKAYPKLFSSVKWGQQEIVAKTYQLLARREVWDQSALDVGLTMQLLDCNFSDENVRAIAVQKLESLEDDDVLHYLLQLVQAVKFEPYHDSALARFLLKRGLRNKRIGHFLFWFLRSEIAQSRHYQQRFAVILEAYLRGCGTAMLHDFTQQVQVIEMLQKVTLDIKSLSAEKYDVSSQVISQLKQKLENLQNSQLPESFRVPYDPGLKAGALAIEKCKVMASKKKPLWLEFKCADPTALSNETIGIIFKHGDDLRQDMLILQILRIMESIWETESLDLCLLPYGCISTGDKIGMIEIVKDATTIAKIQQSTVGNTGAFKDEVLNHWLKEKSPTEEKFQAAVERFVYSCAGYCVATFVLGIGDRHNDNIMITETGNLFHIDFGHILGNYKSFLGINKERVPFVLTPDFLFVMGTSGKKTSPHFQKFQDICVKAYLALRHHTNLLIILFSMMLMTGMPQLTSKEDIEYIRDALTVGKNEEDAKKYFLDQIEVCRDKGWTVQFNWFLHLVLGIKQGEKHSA

As for `COc1cc(N)cc2c1nc(C(F)F)n2-c1nc(N2CCCOCC2)nc(N2CCOCC2)n1` [KTC1101, 2-(difluoromethyl)-4-methoxy-1-(4-morpholino-6-(1,4-oxazepan-4-yl)-1,3,5-triazin-2-yl)-1H-benzo[d]imidazol-6-amine], the IC50 stood at 0.00372 µM against PI3Kα (PIK3CA/PIK3R1), 0.0363 µM at PI3Kβ (PIK3CB/PIK3R1), 0.0171 µM against PI3Kγ (PIK3CG) and 0.00122 µM against PI3Kδ (PIK3CD/PIK3R1). Further, the “intratumoral T cell populations (FACS)” value in series [1] was “increase in intratumoral CD8^+ T, CD4^+ T, and a reduction of Treg cells”. Besides, in series [2], the intratumoral drug concentration result is on record as “accumulation of the drug in continuous dosing”.
